Results from patent US20230293539A1, “MLL1-WDR5 PROTEIN-PROTEIN INTERACTION INHIBITOR COMPOUNDS AND USES THEREOF” (HUYABIO International, LLC, priority 2022, published 2023).

Legend:
MV 411 cells = experiment: Cell Viability Assay (CellTiter-Glo); format: cell-based; settings: Homo sapiens, MV4-11, 72 hours, read-out: IC50 (anti-proliferative activity against leukemia cells)
Method: Cell lines and maintenance: All cell lines (MV 411) used for in vitro and in vivo studies were supplied as part of Wuxi AppTech cell bank. Cell lines were maintained in a medium supplemented with 10% heat inactivated fetal bovine serum at 37° C., in an atmosphere of 5% CO2, in air. The tumor cells were routinely subcultured twice weekly. The cells growing in an exponential growth phase were used for the in vitro cell potency and in vivo efficacy studies.
EXAMPLE 1: Cell Viability Assay: For cell cytotoxicity assays, 2000 cells/well were plated in 384-well plates. Twenty four hours after plating, cells were treated with inhibitors at the indicated compound concentrations. On Day 3 (72 hours), cells were lysed with CellTiter-Glo® Luminescent Cell Viability Assay reagent (Promega) and luminescence was read using the EnVision Multi-plate reader. To calculate IC50, a dose-response curve is generated using a nonlinear regression model with a sigmoidal dose response. The formula of surviving rate is shown below. IC50 values were automatically generated by GraphPad Prism 8.0. See FIG. 1A and FIG. 1B and Tables 3 and 4.

[1] = Compound formulation stability assay; format: physicochemical; settings: 10 mg/mL in 10% DMSO/10% solutol HS 15/80% water, 2-8° C.
Method: Compound formulation stability assay: Test articles were formulated in 10% DMSO/10% solutol HS 15/80% water and stored at 4° C. Formulated compounds were analyzed by a HPLC-UV method for actual concentrations and % remaining on Day 1, 4 and 7 after formulation to determine the stability of the formulated test article. The HPLC system was equipped with Shimadzu LC-20 high-performance liquid chromatograph, SIL-20AC auto sampler, LC-20AB pump and SPD-M20A detector. A Waters XBridge C18 (4.6*100 mm) column was applied for the separation. […]

Mouse PK (oral) = format: in vivo, C57/B16 mice; settings: for Cmax: plasma; for AUC(0-t) / half-life: C57/B16, plasma
Method: Mouse PK: Animals were dosed with a single intravenous bolus or oral gavage administration in naïve C57/B16 mice (Beijing Vital River Laboratory Animal Co., LTD). Blood samples were collected at the respective sampling time points. The quantification of compound concentrations in mouse or rat plasma was quantified using LC-MS/MS method. Plasma concentration versus time data was analyzed by non-compartmental mode approaches using the WinNonlin software program (version 6.3 or above, Pharsight). Pharmacokinetic parameters, including C0 (initial concentration after drug administration), […], Vdss (volume of distribution), Cmax (maximum peak concentration of the drug), Tmax (time required to reach Cmax) T1/2 (time required for drug concentration to decrease by 50% after administration), AUC0-last (area under the concentration-time curve from dosing time t=0 to the time of the last measured concentration), AUC0-inf (total drug exposure across time), MRT0-last (mean residence time from dosing time t=0 to the time of the last measured concentration), MRT0-inf f (mean residence time of total drug exposure), bioavailability (%) (the percentage (or the fraction F) of an administered drug dose that reaches the systemic circulation) for IV and PO groups were calculated. See Table 7 and FIGS. 6A, 6B, 6C and 6D.

Dog PK (oral) = format: in vivo, Beagle dogs; settings: for Cmax / AUC(0-t) / half-life: Beagle, plasma
Method: Dog PK: Fasted or fed non-naïve Beagle dogs (Marshall Bioresources, Beijing, China) were administered a single intravenous bolus or oral gavage administration of test compounds at respective doses. Blood samples for plasma isolation were collected from a peripheral vessel, from restrained, non-sedated animals at the respective sampling time points. The quantification of compound concentrations in dog plasma was quantified using LC-MS/MS method. Plasma concentration versus time data was analyzed by non-compartmental mode approaches using the WinNonlin software program (version 6.3 or above, Pharsight). Pharmacokinetic parameters, including C0, CL, Vdss, Cmax, Tmax T1/2, AUC0-last, AUC0-inf, MRT0-last, MRT0-inf, bioavailability (%) for IV and PO groups were calculated. See FIGS. 9A, […], 9C and FIGS. 10A, 10B, 10C, and 10D.

Liver S9 stability assay [2] = format: in vitro ADME, human
Method: (§1) Liver S9 stability assay: Test compounds (1 μM) and positive control were incubated with 5 mM GSH and liver S9 (1 mg protein/ml) from multiple species (including human, monkey, dog, rat and mouse) at 37° C. at 0, 10, 30, and 60 minutes in duplicate. After adding the stop solution, 100 μL of supernatant were analyzed by LC-MS/MS. The % remaining of test compound, T1/2 (min), and CLint (μL/min/mg) were calculated and were reported.

Liver S9 stability assay [3] = format: in vitro ADME, rat
Method: as §1

Liver S9 stability assay [4] = format: in vitro ADME, dog
Method: as §1

Liver S9 stability assay [5] = format: in vitro ADME, mouse
Method: as §1

[6] = WBS (whole blood stability) assay; format: in vitro ADME; settings: for % Remaining after 60 min incubation: 2 μM, 37° C.
Method: WBS (whole blood stability) assay: The blood samples were collected freshly from multiple species including human, monkey, dog, rat and mouse. 2 μM of test compound and positive control were incubated with the whole blood at 37° C. at 0, 10, 30, 60, and 120 minutes in duplicate. After adding the stop solution, 200 μL of supernatant were analyzed by LC-MS/MS. The % remaining of test compound and T1/2 (min) were calculated and reported.

C[C@@H]1CN(c2ncc(-c3cc(Nc4ncnc(Cl)c4N)c(N4CCN(C)[C@@H](C)C4)cc3F)cn2)C[C@H](C)O1 [DDO-2213_023, 6-chloro-N4-(5-(2-((2S,6R)-2,6-dimethylmorpholino)pyrimidin-5-yl)-2-((S)-3,4-dimethylpiperazin-1-yl)-4-fluorophenyl)pyrimidine-4,5-diamine]
IC50 (MV 411 cells): 4.06 µM | Accuracy % (Day 0) ([1]; Day 0): 89.9% | Formulation Appearance (Day 0) ([1]; Day 0): clear solution | Remaining % (Day 0) ([1]; Day 0): 100% | Accuracy % (Day 1) ([1]; Day 1): 81.3% | Formulation Appearance (Day 1) ([1]; Day 1): clear solution | Remaining % (Day 1) ([1]; Day 1): 90.4% | Accuracy % (Day 4) ([1]; Day 4): 92.2% | Formulation Appearance (Day 4) ([1]; Day 4): clear solution | Remaining % (Day 4) ([1]; Day 4): 100% | Accuracy % (Day 7) ([1]; Day 7): 91.5% | Formulation Appearance (Day 7) ([1]; Day 7): clear solution | Remaining % (Day 7) ([1]; Day 7): 99.1% | F (Mouse PK (oral); 10 mpk): 82.5% | F (Mouse PK (oral); 30 mpk): 93.8% | Cmax (Mouse PK (oral); C57/B16, 10 mg/kg, 10 mpk): 1.32 µM | Cmax (Mouse PK (oral); C57/B16, 30 mg/kg, 30 mpk): 3.43 µM | AUC(0-t) (Mouse PK (oral); 10 mg/kg, 10 mpk): 16.4 µM·h | half-life (Mouse PK (oral); 10 mg/kg, 10 mpk): 11.1 h | AUC(0-t) (Mouse PK (oral); 30 mg/kg, 30 mpk): 56 µM·h | half-life (Mouse PK (oral); 30 mg/kg, 30 mpk): 13.3 h | F (Dog PK (oral); 1.5 mpk): 105.0% | F (Dog PK (oral); 4.5 mpk): 88.8% | Cmax (Dog PK (oral); 1.5 mg/kg, 1.5 mpk): 0.188 µM | Cmax (Dog PK (oral); 4.5 mg/kg, 4.5 mpk): 0.445 µM | AUC(0-t) (Dog PK (oral); 1.5 mg/kg, 1.5 mpk): 5.28 µM·h | half-life (Dog PK (oral); 1.5 mg/kg, 1.5 mpk): 63.6 h | AUC(0-t) (Dog PK (oral); 4.5 mg/kg, 4.5 mpk): 13.4 µM·h | half-life (Dog PK (oral); 4.5 mg/kg, 4.5 mpk): 48.2 h | half-life at 1 μM (Liver S9 stability assay [2]; Human liver S9): > 2.42 h | microsomal CLint at 1 μM (Liver S9 stability assay [2]; Human liver S9): < 4.8 µL/min/mg | % Remaining after 60 min incubation (Liver S9 stability assay [2]; Human liver S9, 1 μM, 5 mM GSH, 37° C.): 81.8% | half-life at 1 μM (Liver S9 stability assay [3]; Rat liver S9): > 2.42 h | microsomal CLint at 1 μM (Liver S9 stability assay [3]; Rat liver S9): < 4.8 µL/min/mg | % Remaining after 60 min incubation (Liver S9 stability assay [3]; Rat liver S9, 1 μM, 5 mM GSH, 37° C.): 101% | half-life at 1 μM (Liver S9 stability assay [4]; Dog liver S9): > 2.42 h | microsomal CLint at 1 μM (Liver S9 stability assay [4]; Dog liver S9): < 4.8 µL/min/mg | % Remaining after 60 min incubation (Liver S9 stability assay [4]; Dog liver S9, 1 μM, 5 mM GSH, 37° C.): 112% | half-life at 1 μM (Liver S9 stability assay [5]; Mouse liver S9): 2.1 h | microsomal CLint at 1 μM (Liver S9 stability assay [5]; Mouse liver S9): 5.5 µL/min/mg | % Remaining after 60 min incubation (Liver S9 stability assay [5]; Mouse liver S9, 1 μM, 5 mM GSH, 37° C.): 71.5% | half-life at 2 μM ([6]; Dog whole blood): > 2.41 h | % Remaining after 60 min incubation ([6]; Dog whole blood): 97.3% | half-life at 2 μM ([6]; Human whole blood): 8.75 h | % Remaining after 60 min incubation ([6]; Human whole blood): 103% | half-life at 2 μM ([6]; Mouse whole blood): > 2.41 h | % Remaining after 60 min incubation ([6]; Mouse whole blood): 103% | half-life at 2 μM ([6]; Rat whole blood): > 2.41 h | % Remaining after 60 min incubation ([6]; Rat whole blood): 103%
